Values of other authors, collected in patent US20060019984A1, “Treatment of diseases with alpha-7nACh receptor full agonists” (Pfizer Inc, priority 2003, published 2006).

How the values were obtained:
[1] = target: α7 nAChR (Homo sapiens, UniProt P36544); settings: general statement, no method or value given
[2] = target: T1, 5HT3R (Homo sapiens, UniProt P46098); settings: general statement, no method or value given
T1 sequence (P46098 24-478): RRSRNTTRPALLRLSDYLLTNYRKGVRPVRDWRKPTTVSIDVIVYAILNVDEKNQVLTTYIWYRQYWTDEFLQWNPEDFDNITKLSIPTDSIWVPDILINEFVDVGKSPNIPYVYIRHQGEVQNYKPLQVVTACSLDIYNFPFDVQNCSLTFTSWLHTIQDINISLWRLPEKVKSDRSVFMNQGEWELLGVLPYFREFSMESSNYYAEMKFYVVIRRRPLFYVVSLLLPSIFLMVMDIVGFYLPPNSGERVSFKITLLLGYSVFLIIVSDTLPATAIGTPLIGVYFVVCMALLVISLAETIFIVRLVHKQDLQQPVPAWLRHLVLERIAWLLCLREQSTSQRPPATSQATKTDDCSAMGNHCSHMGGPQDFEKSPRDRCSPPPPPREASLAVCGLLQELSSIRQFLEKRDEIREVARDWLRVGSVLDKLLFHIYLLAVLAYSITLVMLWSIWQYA

Chain of α7 nAChR (P36544 23-502): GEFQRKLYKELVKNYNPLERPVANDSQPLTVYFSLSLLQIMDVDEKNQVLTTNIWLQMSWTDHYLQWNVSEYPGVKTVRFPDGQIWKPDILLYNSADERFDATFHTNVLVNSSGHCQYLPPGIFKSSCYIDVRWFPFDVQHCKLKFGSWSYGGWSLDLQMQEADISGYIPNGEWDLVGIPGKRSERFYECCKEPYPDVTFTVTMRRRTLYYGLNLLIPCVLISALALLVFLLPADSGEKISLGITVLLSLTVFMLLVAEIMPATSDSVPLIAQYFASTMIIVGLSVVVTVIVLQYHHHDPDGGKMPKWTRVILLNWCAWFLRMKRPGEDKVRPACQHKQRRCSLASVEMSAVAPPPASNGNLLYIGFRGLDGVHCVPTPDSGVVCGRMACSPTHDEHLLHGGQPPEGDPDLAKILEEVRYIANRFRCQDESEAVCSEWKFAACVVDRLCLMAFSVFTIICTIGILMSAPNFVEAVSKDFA

activity at the α7 nAChR [1]	activity at the 5HT3R [2]	SMILES
little activity	–	Cc1nccn1CC1CCc2c(c3ccccc3n2C)C1=O (centres unmarked) [Ondansetron]
–	little activity	COc1ccc(/C=C2\CCCN=C2c2cccnc2)c(OC)c1 [GTS-21]
